From patent US8865763B2, “Methods and compositions for altering cell function” (Alltech, Inc., priority 2005, dated 2014)

What was measured:
[1] = test system: Complement component 1, q subcomponent, gamma polypeptide, C1qg; assay: Microarray gene expression, mouse cerebral cortex: C1qg; format: in vivo; conditions: diet 1 ppm Se, vs selenium deficient, * p<0.01
From the text: (§1) Animal Care. Male C57BL/6J mice were housed singly and started on the experimental diets described below immediately after weaning (21 days of age). The mice were maintained in the Shared Aging Rodent Facility at the William S. Middleton Memorial Veterans Administration Medical Center (Madison, Wis.). Temperature and humidity were maintained at constant levels. Room light was controlled to provide 12-hr cycles of light and dark.
(§2) Experimental diets were created by Harlan Teklad (Madison, Wis.). Selenium content of the diets was determined by Covance Inc. (Madison, Wis.). Five (5) animals were included in each of the following treatment groups: a diet deficient in selenium (SD); a diet supplemented with selenomethionine (SM, obtained from Sigma, St. Louis, Mo.) such that the final selenium content of the diet was one (1) part per million; a diet supplemented with sodium selenite (SS, Sigma) such that the final concentration of selenium in this diet was one (1) part per million; or a diet supplemented with the yeast selenium SEL-PLEX (SP, Alltech, Lexington, Ky.), such that the final concentration of selenium in this diet was one (1) part per million. SEL-PLEX. […]
(§3) Tissue sample preparation and microarray analysis. […] For intestinal expression studies, the intestine was flushed twice with saline solution and small intestine was measured and divided in three equal segments. […]

[2] = test system: Growth arrest and DNA-damage-inducible 45 gamma (Gadd45g); assay: Microarray gene expression, mouse intestine: Gadd45g; format: in vivo; conditions: diet 1 ppm Se, vs selenium deficient, negative = down
From the text: as §1
Experimental diets were created by Harlan Teklad (Madison, Wis.). Selenium content of the diets was determined by Covance Inc. (Madison, Wis.). Five (5) animals were included in each of the following treatment groups: a diet deficient in selenium (SD); a diet supplemented with selenomethionine (SM, obtained from Sigma, St. Louis, Mo.) such that the final selenium content of the diet was one (1) part per million; a diet supplemented with sodium selenite (SS, Sigma) such that the final concentration of selenium in this diet was one (1) part per million; or a diet supplemented with the yeast selenium SEL-PLEX (SP, Alltech, Lexington, Ky.), such that the final concentration of selenium in this diet was one (1) part per million. SEL-PLEX. Mice were provided with water and their respective diet ad libitum for 100 days. Diets were stored at the dark at 4° C. and fresh diet was added to feeder twice weekly.
Tissue sample preparation and microarray analysis. Mice were killed at 100 days of age by cervical dislocation. For intestinal expression studies, the intestine was flushed twice with saline solution and small intestine was measured and divided in three equal segments. A 3-cm region of the middle segment of the small intestine corresponding to the jejunum (˜300 mg of tissue) was cut and rinsed again with physiological saline to completely remove contents, flash frozen in liquid nitrogen and stored at −80° C. For brain (e.g., cerebral cortex) studies, the cerebral cortex was separated from the surrounding brain tissue and was flash frozen in liquid nitrogen and stored at −80° C. […]

[3] = test system: SelR (Selenoprotein X1); assay: Microarray gene expression, mouse intestine: SelR; format: in vivo; conditions: diet 1 ppm Se, vs selenium deficient
From the text: as §1, §2, §3

[4] = test system: Glutathione Peroxidase 3; assay: Microarray gene expression, mouse intestine: Glutathione Peroxidase 3; format: in vivo; conditions: diet 1 ppm Se, vs selenium deficient, all p < 0.01
From the text: as §1, §2, §3

[5] = test system: selenoprotein N1 (Sepn1); assay: Microarray gene expression, mouse intestine: Sepn1; format: in vivo; conditions: diet 1 ppm Se, vs selenium deficient
From the text: as §1, §2, §3

[6] = test system: Neurogenin 3 (Neurog3); assay: Microarray gene expression, mouse intestine: Neurog3; format: in vivo; conditions: diet 1 ppm Se, vs selenium deficient
From the text: as §1, §2, §3

[7] = test system: sprouty homolog 2 gene (Spry2); assay: Microarray gene expression, mouse intestine: Spry2; format: in vivo; conditions: diet 1 ppm Se, vs Se-deficient controls
From the text: as §1, §2, §3

[8] = test system: Glyoxalase 1 (Glo1); assay: Microarray gene expression, mouse intestine: Glo1; format: in vivo; conditions: diet 1 ppm Se, vs selenium deficient
From the text: as §1, §2, §3

[9] = test system: Glutathione Peroxidase 1; assay: Microarray gene expression, mouse intestine: Glutathione Peroxidase 1; format: in vivo; conditions: diet 1 ppm Se, vs selenium deficient, all p < 0.01
From the text: as §1, §2, §3

[10] = test system: Prohibitin (Phb); assay: Microarray gene expression, mouse intestine: Phb; format: in vivo; conditions: diet 1 ppm Se, vs selenium deficient
From the text: as §1, §2, §3

[11] = test system: LIM homeobox protein 8 gene (Lhx8); assay: Microarray gene expression, mouse intestine: Lhx8; format: in vivo; conditions: diet 1 ppm Se, vs selenium deficient
From the text: as §1, §2, §3

[12] = Body weight of mice on selenium diets; format: in vivo, mouse; conditions: mouse, in vivo
From the text: as §1
Experimental diets were created by Harlan Teklad (Madison, Wis.). Selenium content of the diets was determined by Covance Inc. (Madison, Wis.). […]
Thus, it was an object of the present invention to determine whether compositions and methods of the present invention could alter the expression levels (e.g., mRNA levels) of various genes. One group of genes analyzed were genes classically associated with selenium. As described above, the expression levels of genes were analyzed between mice with and without dietary selenium, or, between mice fed different sources of selenium) (See, e.g., Table 1, below).

[13] = test system: CORS-26; assay: Microarray gene expression, mouse cerebral cortex: CORS-26; format: in vivo; conditions: diet 1 ppm Se, vs selenium deficient
From the text: as §1, §2, §3

[14] = test system: Type 1 iodothyronine deiodinase; assay: Microarray gene expression, mouse intestine: Type 1 iodothyronine deiodinase; format: in vivo; conditions: diet 1 ppm Se, vs selenium deficient
From the text: as §1, §2, §3

[15] = test system: type II iodothyronine deiodinase (Dio2); assay: Microarray gene expression, mouse intestine: Dio2; format: in vivo; conditions: diet 1 ppm Se, vs selenium deficient
From the text: as §1, §2, §3

[16] = test system: transforming growth factor beta 2 (TGF-β2); assay: Microarray gene expression, mouse intestine: TGF-β2; format: in vivo; conditions: diet 1 ppm Se, vs controls
From the text: as §1, §2, §3

[17] = test system: Selenoprotein W (SelW); assay: Microarray gene expression, mouse intestine: SelW; format: in vivo; conditions: diet 1 ppm Se, vs selenium deficient
From the text: as §1, §2, §3

- expression of Glo1, fold reduction [8]: not significantly affected
SMILES: C[Se]CC[C@H](N)C(=O)O [SeM, selenomethionine]
- FC (fold change) expression of C1qg [1]: 1.0 fold
- FC (fold change) expression of Gadd45g [2]: decreased expression
- FC (fold change) expression of Gadd45g ([2]; listed as SM): −1.5 fold
- expression of SelR, fold upregulated [3]: not significantly affected
- fold change in expression of Glutathione Peroxidase 3 [4]: 4.6 fold
- expression of selenoprotein N1 (Sepn1), fold increased [5]: not significantly affected
- Neurog3 expression, fold upregulated [6]: no significant alteration
- Spry2 gene expression, fold reduction [7]: no alteration in expression levels
- fold change in expression of Glutathione Peroxidase 1 [9]: 4.9 fold
- expression of Prohibitin (Phb), fold upregulated [10]: 1.6 fold
- expression of Lhx8, fold upregulated [11]: not significantly different
- body weights of mice [12]: No significant differences
- expression of CORS-26, fold reduction [13]: no alteration in expression levels
- fold increase of expression level of Type 1 iodothyronine deiodinase [14]: 2.0 fold
- expression of Dio2, fold down-regulation [15]: no ability to alter the expression levels
- expression of TGF-β2 (printed TGF-β), fold upregulated [16]: not altered
- expression of Selenoprotein W (SelW), fold upregulated [17]: not significantly altered
